Source: patent publication US5843889A, “Glycopeptide antibiotic derivatives” (Eli Lilly and Company, priority 1997, dated 1998)
In brackets after ≈: the same amount, converted by molar mass.

What was measured:
Experiment in all cases: MIC, standard broth micro-dilution assay
Format in all cases: cell-based
[1] = tested on: Entercoccus faecalis 2041
Experimental: (§1) The formula I compounds have in vitro and in vivo activity against Gram-positive pathogenic bacteria. The MIC's were determined using a standard broth micro-dilution assay.

Entercoccus faecalis 276 = tested on: Entercoccus faecalis 276
Experimental: as §1

[2] = tested on: Entercoccus gallinarum 245
Experimental: as §1

Molecule	MIC [1]	MIC (Entercoccus faecalis 276)	MIC [2]
CNC(CC(C)C)C(=O)NC1C(=O)NC(CC(N)=O)C(=O)NC2C(=O)NC3C(=O)NC(C(=O)NC(C(=O)O)c4cc(O)cc(O)c4-c4cc3ccc4O)C(OC3CC(C)(N)C(O)C(C)O3)c3ccc(c(Cl)c3)Oc3cc2cc(c3OC2OC(CO)C(O)C(O)C2OC2CC(C)(NCc3ccc(-c4ccccc4)s3)C(O)C(C)O2)Oc2ccc(cc2Cl)C1O (stereo not drawn) [Compound 67, 5-phenyl-2-thienylmethyl]	≤ 0.06 µg/mL	≤ 0.06 µg/mL	2 µg/mL (≈ 1.13 µM)
CNC(CC(C)C)C(=O)NC1C(=O)NC(CC(N)=O)C(=O)NC2C(=O)NC3C(=O)NC(C(=O)NC(C(=O)O)c4cc(O)cc(O)c4-c4cc3ccc4O)C(OC3CC(C)(N)C(O)C(C)O3)c3ccc(c(Cl)c3)Oc3cc2cc(c3OC2OC(CO)C(O)C(O)C2OC2CC(C)(NCc3cccnc3)C(O)C(C)O2)Oc2ccc(cc2Cl)C1O (stereo not drawn) [Compound 24, 3-pyridylmethyl]	≤ 0.06 µg/mL	0.25 µg/mL (≈ 0.148 µM)	0.25 µg/mL (≈ 0.148 µM)
4-[3-trifluoromethylphenoxy]-3-nitrobenzyl [Compound 114]	0.25 µg/mL	1 µg/mL	2 µg/mL
CNC(CC(C)C)C(=O)NC1C(=O)NC(CC(N)=O)C(=O)NC2C(=O)NC3C(=O)NC(C(=O)NC(C(=O)O)c4cc(O)cc(O)c4-c4cc3ccc4O)C(OC3CC(C)(N)C(O)C(C)O3)c3ccc(c(Cl)c3)Oc3cc2cc(c3OC2OC(CO)C(O)C(O)C2OC2CC(C)(NCCCCCCCCOc3ccc(OC)cc3)C(O)C(C)O2)Oc2ccc(cc2Cl)C1O (stereo not drawn) [Compound 200, 8-[4-methoxyphenoxy]octyl]	≤ 0.06 µg/mL	0.5 µg/mL (≈ 0.274 µM)	2 µg/mL (≈ 1.09 µM)
CNC(CC(C)C)C(=O)NC1C(=O)NC(CC(N)=O)C(=O)NC2C(=O)NC3C(=O)NC(C(=O)NC(C(=O)O)c4cc(O)cc(O)c4-c4cc3ccc4O)C(OC3CC(C)(N)C(O)C(C)O3)c3ccc(c(Cl)c3)Oc3cc2cc(c3OC2OC(CO)C(O)C(O)C2OC2CC(C)(NCc3ccc(OC)c4ccccc34)C(O)C(C)O2)Oc2ccc(cc2Cl)C1O (stereo not drawn) [Compound 15, 4-methoxy-1-naphthylmethyl]	≤ 0.06 µg/mL	≤ 0.06 µg/mL	≤ 0.06 µg/mL
CNC(CC(C)C)C(=O)NC1C(=O)NC(CC(N)=O)C(=O)NC2C(=O)NC3C(=O)NC(C(=O)NC(C(=O)O)c4cc(O)cc(O)c4-c4cc3ccc4O)C(OC3CC(C)(N)C(O)C(C)O3)c3ccc(c(Cl)c3)Oc3cc2cc(c3OC2OC(CO)C(O)C(O)C2OC2CC(C)(NCc3ccc(OCCCCCCc4ccccc4)cc3)C(O)C(C)O2)Oc2ccc(cc2Cl)C1O (stereo not drawn) [Compound 219, 4-[6-phenylhexyloxy]benzyl]	2 µg/mL (≈ 1.08 µM)	2 µg/mL (≈ 1.08 µM)	2 µg/mL (≈ 1.08 µM)
CNC(CC(C)C)C(=O)NC1C(=O)NC(CC(N)=O)C(=O)NC2C(=O)NC3C(=O)NC(C(=O)NC(C(=O)O)c4cc(O)cc(O)c4-c4cc3ccc4O)C(OC3CC(C)(N)C(O)C(C)O3)c3ccc(c(Cl)c3)Oc3cc2cc(c3OC2OC(CO)C(O)C(O)C2OC2CC(C)(NCc3cccc(OC(=O)c4ccccc4)c3)C(O)C(C)O2)Oc2ccc(cc2Cl)C1O (stereo not drawn) [Compound 162, 3-benzoyloxybenzyl]	≤ 0.06 µg/mL	≤ 0.06 µg/mL	2 µg/mL (≈ 1.11 µM)
CNC(CC(C)C)C(=O)NC1C(=O)NC(CC(N)=O)C(=O)NC2C(=O)NC3C(=O)NC(C(=O)NC(C(=O)O)c4cc(O)cc(O)c4-c4cc3ccc4O)C(OC3CC(C)(N)C(O)C(C)O3)c3ccc(c(Cl)c3)Oc3cc2cc(c3OC2OC(CO)C(O)C(O)C2OC2CC(C)(NCc3ccc(-c4ccc([N+](=O)[O-])cc4)c([N+](=O)[O-])c3)C(O)C(C)O2)Oc2ccc(cc2Cl)C1O (stereo not drawn) [Compound 212, 3-nitro-4-[4-nitrophenyl]benzyl]	≤ 0.06 µg/mL	≤ 0.06 µg/mL	1 µg/mL (≈ 0.541 µM)
CNC(CC(C)C)C(=O)NC1C(=O)NC(CC(N)=O)C(=O)NC2C(=O)NC3C(=O)NC(C(=O)NC(C(=O)O)c4cc(O)cc(O)c4-c4cc3ccc4O)C(OC3CC(C)(N)C(O)C(C)O3)c3ccc(c(Cl)c3)Oc3cc2cc(c3OC2OC(CO)C(O)C(O)C2OC2CC(C)(NCCCCCCCCOc3ccc(-c4ccccc4)cc3)C(O)C(C)O2)Oc2ccc(cc2Cl)C1O (stereo not drawn) [Compound 201, 8-[4-phenylphenoxy]octyl]	1 µg/mL (≈ 0.534 µM)	4 µg/mL (≈ 2.14 µM)	8 µg/mL (≈ 4.27 µM)
CNC(CC(C)C)C(=O)NC1C(=O)NC(CC(N)=O)C(=O)NC2C(=O)NC3C(=O)NC(C(=O)NC(C(=O)O)c4cc(O)cc(O)c4-c4cc3ccc4O)C(OC3CC(C)(N)C(O)C(C)O3)c3ccc(c(Cl)c3)Oc3cc2cc(c3OC2OC(CO)C(O)C(O)C2OC2CC(C)(NCc3ccc(Oc4ccc(Cl)c(Cl)c4)cc3)C(O)C(C)O2)Oc2ccc(cc2Cl)C1O (stereo not drawn) [Compound 81, 4-[3,4-dichlorophenoxy]benzyl]	≤ 0.06 µg/mL	≤ 0.06 µg/mL	0.25 µg/mL (≈ 0.136 µM)
CNC(CC(C)C)C(=O)NC1C(=O)NC(CC(N)=O)C(=O)NC2C(=O)NC3C(=O)NC(C(=O)NC(C(=O)O)c4cc(O)cc(O)c4-c4cc3ccc4O)C(OC3CC(C)(N)C(O)C(C)O3)c3ccc(c(Cl)c3)Oc3cc2cc(c3OC2OC(CO)C(O)C(O)C2OC2CC(C)(NCC34CC5CC(CC(C5)C3)C4)C(O)C(C)O2)Oc2ccc(cc2Cl)C1O (stereo not drawn) [Compound 141, 1-adamantylmethyl]	≤ 0.06 µg/mL	0.5 µg/mL (≈ 0.287 µM)	4 µg/mL (≈ 2.3 µM)
CCCCCc1ccc(-c2ccc(CNC3(C)CC(OC4C(Oc5c6cc7cc5Oc5ccc(cc5Cl)C(OC5CC(C)(N)C(O)C(C)O5)C5NC(=O)C(NC(=O)C7NC(=O)C(CC(N)=O)NC(=O)C(NC(=O)C(CC(C)C)NC)C(O)c7ccc(c(Cl)c7)O6)c6ccc(O)c(c6)-c6c(O)cc(O)cc6C(C(=O)O)NC5=O)OC(CO)C(O)C4O)OC(C)C3O)cc2)cc1 (stereo not drawn) [Compound 22, 4-[4-pentylphenyl]benzyl]	2 µg/mL (≈ 1.09 µM)	4 µg/mL (≈ 2.19 µM)	1 µg/mL (≈ 0.547 µM)
CNC(CC(C)C)C(=O)NC1C(=O)NC(CC(N)=O)C(=O)NC2C(=O)NC3C(=O)NC(C(=O)NC(C(=O)O)c4cc(O)cc(O)c4-c4cc3ccc4O)C(OC3CC(C)(N)C(O)C(C)O3)c3ccc(c(Cl)c3)Oc3cc2cc(c3OC2OC(CO)C(O)C(O)C2OC2CC(C)(NCc3cccc(OC(C)=O)c3)C(O)C(C)O2)Oc2ccc(cc2Cl)C1O (stereo not drawn) [Compound 77, 3-acetoxybenzyl]	0.25 µg/mL (≈ 0.144 µM)	0.25 µg/mL (≈ 0.144 µM)	0.25 µg/mL (≈ 0.144 µM)
CNC(CC(C)C)C(=O)NC1C(=O)NC(CC(N)=O)C(=O)NC2C(=O)NC3C(=O)NC(C(=O)NC(C(=O)O)c4cc(O)cc(O)c4-c4cc3ccc4O)C(OC3CC(C)(N)C(O)C(C)O3)c3ccc(c(Cl)c3)Oc3cc2cc(c3OC2OC(CO)C(O)C(O)C2OC2CC(C)(NCc3ccc(-c4ccc(Br)cc4)cc3)C(O)C(C)O2)Oc2ccc(cc2Cl)C1O (stereo not drawn) [Compound 230, 4-[4-bromophenyl]benzyl]	≤ 0.06 µg/mL	≤ 0.06 µg/mL	2 µg/mL (≈ 1.09 µM)
CNC(CC(C)C)C(=O)NC1C(=O)NC(CC(N)=O)C(=O)NC2C(=O)NC3C(=O)NC(C(=O)NC(C(=O)O)c4cc(O)cc(O)c4-c4cc3ccc4O)C(OC3CC(C)(N)C(O)C(C)O3)c3ccc(c(Cl)c3)Oc3cc2cc(c3OC2OC(CO)C(O)C(O)C2OC2CC(C)(NCCc3ccc(Cc4ccccc4)cc3)C(O)C(C)O2)Oc2ccc(cc2Cl)C1O (stereo not drawn) [Compound 35, 4 -benzylphenethyl]	≤ 0.06 µg/mL	≤ 0.06 µg/mL	≤ 0.06 µg/mL
CNC(CC(C)C)C(=O)NC1C(=O)NC(CC(N)=O)C(=O)NC2C(=O)NC3C(=O)NC(C(=O)NC(C(=O)O)c4cc(O)cc(O)c4-c4cc3ccc4O)C(OC3CC(C)(N)C(O)C(C)O3)c3ccc(c(Cl)c3)Oc3cc2cc(c3OC2OC(CO)C(O)C(O)C2OC2CC(C)(NCc3ccc4ccccc4n3)C(O)C(C)O2)Oc2ccc(cc2Cl)C1O (stereo not drawn) [Compound 30, 2-quinolylmethyl]	≤ 0.06 µg/mL	0.25 µg/mL (≈ 0.144 µM)	≤ 0.06 µg/mL
CNC(CC(C)C)C(=O)NC1C(=O)NC(CC(N)=O)C(=O)NC2C(=O)NC3C(=O)NC(C(=O)NC(C(=O)O)c4cc(O)cc(O)c4-c4cc3ccc4O)C(OC3CC(C)(N)C(O)C(C)O3)c3ccc(c(Cl)c3)Oc3cc2cc(c3OC2OC(CO)C(O)C(O)C2OC2CC(C)(NCc3cccc(OC(=O)C4CCCCC4)c3)C(O)C(C)O2)Oc2ccc(cc2Cl)C1O (stereo not drawn) [Compound 165, 3-cyclohexanoyloxybenzyl]	≤ 0.06 µg/mL	0.5 µg/mL (≈ 0.276 µM)	4 µg/mL (≈ 2.21 µM)
C=CCCCCNC1(C)CC(OC2C(Oc3c4cc5cc3Oc3ccc(cc3Cl)C(OC3CC(C)(N)C(O)C(C)O3)C3NC(=O)C(NC(=O)C5NC(=O)C(CC(N)=O)NC(=O)C(NC(=O)C(CC(C)C)NC)C(O)c5ccc(c(Cl)c5)O4)c4ccc(O)c(c4)-c4c(O)cc(O)cc4C(C(=O)O)NC3=O)OC(CO)C(O)C2O)OC(C)C1O (stereo not drawn) [Compound 217, 5-hexenyl]	≤ 0.06 µg/mL	≤ 0.06 µg/mL	8 µg/mL (≈ 4.78 µM)
CNC(CC(C)C)C(=O)NC1C(=O)NC(CC(N)=O)C(=O)NC2C(=O)NC3C(=O)NC(C(=O)NC(C(=O)O)c4cc(O)cc(O)c4-c4cc3ccc4O)C(OC3CC(C)(N)C(O)C(C)O3)c3ccc(c(Cl)c3)Oc3cc2cc(c3OC2OC(CO)C(O)C(O)C2OC2CC(C)(NCc3ccc(Oc4ccccc4[N+](=O)[O-])cc3)C(O)C(C)O2)Oc2ccc(cc2Cl)C1O (stereo not drawn) [Compound 70, 4-[2-nitrophenoxy]benzyl]	≤ 0.06 µg/mL	≤ 0.06 µg/mL	2 µg/mL (≈ 1.1 µM)
CNC(CC(C)C)C(=O)NC1C(=O)NC(CC(N)=O)C(=O)NC2C(=O)NC3C(=O)NC(C(=O)NC(C(=O)O)c4cc(O)cc(O)c4-c4cc3ccc4O)C(OC3CC(C)(N)C(O)C(C)O3)c3ccc(c(Cl)c3)Oc3cc2cc(c3OC2OC(CO)C(O)C(O)C2OC2CC(C)(NCCCCCCCCCCCCc3ccccc3)C(O)C(C)O2)Oc2ccc(cc2Cl)C1O (stereo not drawn) [Compound 234, 12-phenyldodecyl]	0.5 µg/mL (≈ 0.272 µM)	4 µg/mL (≈ 2.18 µM)	16 µg/mL (≈ 8.71 µM)
